# Measurements: patent US9539260B2, “Dihydro-benzo-oxazine and dihydro-pyrido-oxazine derivatives” (Novartis AG, priority 2012, dated 2017)
# How the values were obtained:
# PI3K alpha = PI3K alpha (Homo sapiens (Human), UniProt P42336); experiment: Enzymatic PI3K alpha isoform inhibition (lipid kinase activity, Kinase-Glo luminescence); assay type: biochemical; details: Enzymatic assay
# Outline: (§1)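 IC50s derive from 4-parameter logistic fits of % inhibition across 8 concentrations (usually 10 to 0.003 μM). Lipid kinase reaction: PI3K (10 nM) plus phosphatidylinositol (5 μg/mL) started with 2 μM ATP, stopped near 50% ATP depletion; leftover ATP quantified by Kinase-Glo luminescence.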
# PI3K delta = PI3K delta (Homo sapiens (Human), UniProt O00329); experiment: Enzymatic PI3K delta isoform inhibition (lipid kinase activity, Kinase-Glo luminescence); assay type: biochemical; details: Enzymatic assay
# PI3K delta, sequence (O00329 other isoform, or with tags, fused parts or gaps linker GGGGGG): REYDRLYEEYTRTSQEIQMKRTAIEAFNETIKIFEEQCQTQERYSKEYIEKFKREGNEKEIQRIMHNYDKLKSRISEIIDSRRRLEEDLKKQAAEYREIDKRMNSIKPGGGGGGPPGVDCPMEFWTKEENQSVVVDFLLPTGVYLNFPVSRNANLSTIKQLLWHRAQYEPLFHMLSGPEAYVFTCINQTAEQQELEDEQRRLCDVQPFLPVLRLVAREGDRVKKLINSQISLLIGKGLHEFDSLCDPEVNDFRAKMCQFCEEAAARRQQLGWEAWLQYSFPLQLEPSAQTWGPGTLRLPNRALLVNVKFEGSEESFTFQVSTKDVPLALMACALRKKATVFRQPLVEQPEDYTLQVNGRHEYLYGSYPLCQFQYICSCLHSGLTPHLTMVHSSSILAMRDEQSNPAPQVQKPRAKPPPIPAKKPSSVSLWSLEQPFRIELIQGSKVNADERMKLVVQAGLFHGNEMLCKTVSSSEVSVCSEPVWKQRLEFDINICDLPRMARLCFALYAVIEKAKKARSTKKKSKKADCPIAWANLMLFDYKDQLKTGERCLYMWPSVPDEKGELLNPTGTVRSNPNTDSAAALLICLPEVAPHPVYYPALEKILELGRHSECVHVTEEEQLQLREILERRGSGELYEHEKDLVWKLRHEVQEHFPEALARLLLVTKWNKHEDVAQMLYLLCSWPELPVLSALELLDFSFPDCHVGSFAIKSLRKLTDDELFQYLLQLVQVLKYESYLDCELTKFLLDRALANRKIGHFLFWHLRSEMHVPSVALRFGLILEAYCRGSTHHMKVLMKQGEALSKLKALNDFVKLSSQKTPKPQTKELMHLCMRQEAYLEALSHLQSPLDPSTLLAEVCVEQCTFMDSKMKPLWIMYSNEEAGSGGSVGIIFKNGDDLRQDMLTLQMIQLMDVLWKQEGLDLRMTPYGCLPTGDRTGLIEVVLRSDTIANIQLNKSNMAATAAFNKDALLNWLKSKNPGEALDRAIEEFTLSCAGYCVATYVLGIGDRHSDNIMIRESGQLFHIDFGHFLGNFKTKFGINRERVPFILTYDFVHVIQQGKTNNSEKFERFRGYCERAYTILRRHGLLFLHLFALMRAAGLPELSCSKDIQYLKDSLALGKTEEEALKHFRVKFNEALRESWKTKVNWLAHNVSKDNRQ
# Outline: as §1
# PI3K alpha, sequence (P42336 other isoform, or with tags, fused parts or gaps): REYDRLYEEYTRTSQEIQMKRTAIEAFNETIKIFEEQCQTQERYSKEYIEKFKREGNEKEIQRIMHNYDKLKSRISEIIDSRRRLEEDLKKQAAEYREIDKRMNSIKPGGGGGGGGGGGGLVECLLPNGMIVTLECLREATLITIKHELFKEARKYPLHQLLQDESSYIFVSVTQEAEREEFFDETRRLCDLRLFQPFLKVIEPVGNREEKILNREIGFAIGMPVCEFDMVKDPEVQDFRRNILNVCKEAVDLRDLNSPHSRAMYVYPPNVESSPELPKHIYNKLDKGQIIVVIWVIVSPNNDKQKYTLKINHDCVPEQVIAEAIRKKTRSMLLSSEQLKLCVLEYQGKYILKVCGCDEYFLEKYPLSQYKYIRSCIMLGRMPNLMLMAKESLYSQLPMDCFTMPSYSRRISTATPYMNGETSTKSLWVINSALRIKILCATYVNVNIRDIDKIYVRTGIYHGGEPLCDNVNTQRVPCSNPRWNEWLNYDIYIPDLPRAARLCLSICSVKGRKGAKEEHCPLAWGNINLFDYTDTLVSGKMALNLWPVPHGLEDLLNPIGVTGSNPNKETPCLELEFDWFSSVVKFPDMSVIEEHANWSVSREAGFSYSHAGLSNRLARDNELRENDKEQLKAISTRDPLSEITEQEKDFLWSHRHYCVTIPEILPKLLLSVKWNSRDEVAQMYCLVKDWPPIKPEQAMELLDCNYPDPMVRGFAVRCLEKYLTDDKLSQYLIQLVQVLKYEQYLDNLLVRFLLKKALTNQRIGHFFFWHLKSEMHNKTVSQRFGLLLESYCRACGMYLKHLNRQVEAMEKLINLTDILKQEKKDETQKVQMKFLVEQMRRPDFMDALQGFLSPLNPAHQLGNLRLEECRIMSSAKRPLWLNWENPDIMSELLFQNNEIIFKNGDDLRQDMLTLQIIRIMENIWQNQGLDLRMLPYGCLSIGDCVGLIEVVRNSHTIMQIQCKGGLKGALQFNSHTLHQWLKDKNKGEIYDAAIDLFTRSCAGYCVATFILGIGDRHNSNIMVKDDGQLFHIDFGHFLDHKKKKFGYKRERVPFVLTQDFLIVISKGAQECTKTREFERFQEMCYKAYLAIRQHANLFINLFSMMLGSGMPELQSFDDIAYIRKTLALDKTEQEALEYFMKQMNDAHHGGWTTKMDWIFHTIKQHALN
SMILES,IC50 (PI3K alpha) [nM],IC50 (PI3K delta) [nM]
"COc1cc(N2CCOc3ccc(O[C@H]4CCN(C(=O)C5CCS(=O)(=O)C5)C4)cc32)cnc1OC (single isomer, unassigned) [Example H9]",616,11
"COc1cc(N2CCOc3ccc(O[C@H]4CCN(C(=O)C5COCCO5)C4)cc32)cnc1OC (single isomer, unassigned) [Example H6]",846,53
"COc1ncc(N2CCOc3ccc(O[C@H]4CCN(C(=O)c5ocnc5C)C4)cc32)cc1C#N [Example D33, 2-Methoxy-5-{6-[(S)-1-(4-methyl-oxazole-5-carbonyl)-pyrrolidin-3-yloxy]-2,3-dihydro-benzo[1,4]oxazin-4-yl}-nicotinonitrile]",117,8
"COc1ncc(N2CCOc3ccc(O[C@H]4CCN(C(=O)c5cnco5)C4)cc32)cc1C#N [Example D32, 2-Methoxy-5-{6-[(S)-1-(oxazole-5-carbonyl)-pyrrolidin-3-yloxy]-2,3-dihydro-benzo[1,4]oxazin-4-yl}-nicotinonitrile]",94,9
"COc1ncc(N2CCOc3ccc(O[C@H]4CCN(C(=O)c5cncn5C)C4)cc32)cc1C [Example B88, {(S)-3-[4-(6-Methoxy-5-methyl-pyridin-3-yl)-3,4-dihydro-2H-benzo[1,4]oxazin-6-yloxy]-pyrrolidin-1-yl}-(3-methyl-3H-imidazol-4-yl)-methanone]",234,8
"CC(C)S(=O)(=O)c1cncc(N2CCOc3ccc(O[C@H]4CCN(C(=O)C5CCS(=O)(=O)CC5)C4)cc32)c1 [Example B29, (1,1-Dioxo-hexahydro-1lambda*6*-thiopyran-4-yl)-((S)-3-{4-[5-(propane-2-sulfonyl)-pyridin-3-yl]-3,4-dihydro-2H-benzo[1,4]oxazin-6-yloxy}-pyrrolidin-1-yl)-methanone]",558,41
"CCC(=O)N1CC[C@H](Oc2ccc3c(c2)N(c2ccc(OC)c(S(C)(=O)=O)c2)CCO3)C1 [Example A16, 1-{(S)-3-[4-(3-Methanesulfonyl-4-methoxy-phenyl)-3,4-dihydro-2H-benzo[1,4]oxazin-6-yloxy]-pyrrolidin-1-yl}-propan-1-one]",> 9100,323
"COc1ncc(N2CCOc3ccc(O[C@H]4CCN(C(=O)c5ccc(=O)[nH]c5)C4)cc32)cc1C [Example B92, 5-{(S)-3-[4-(6-Methoxy-5-methyl-pyridin-3-yl)-3,4-dihydro-2H-benzo[1,4]oxazin-6-yloxy]-pyrrolidine-1-carbonyl}-1H-pyridin-2-one]",346,8
"COc1ncc(N2CCOc3cnc(O[C@H]4CCN(C(=O)C5CCS(=O)(=O)CC5)C4)cc32)cc1C(F)(F)F [Example E6, (1,1-Dioxo-hexahydro-1lambda*6*-thiopyran-4-yl)-{(S)-3-[1-(6-methoxy-5-trifluoromethyl-pyridin-3-yl)-2,3-dihydro-1H-pyrido[3,4-b][1,4]oxazin-7-yloxy]-pyrrolidin-1-yl}-methanone]",341,9
"COc1ncc(N2CCOc3ccc(O[C@H]4CCN(C(=O)[C@@H]5CCNC5)C4)cc32)cc1C#N [Example D40, 2-methoxy-5-{6-[(S)-1-((R)-pyrrolidine-3-carbonyl)-pyrrolidin-3-yloxy]-2,3-dihydro-benzo[1,4]oxazin-4-yl}-nicotinonitrile]",704,25
"CCC(=O)N1CC[C@H](Oc2ccc3c(c2)N(c2cnc(OC)c(OC)c2)CCO3)C1 [Example B4, 1-{(S)-3-[4-(5,6-Dimethoxy-pyridin-3-yl)-3,4-dihydro-2H-benzo[1,4]oxazin-6-yloxy]-pyrrolidin-1-yl}-propan-1-one]",1230,83
"COc1ncc(N2CCOc3ccc(O[C@H]4CCN(C(=O)c5ccncc5)C4)cc32)cc1C#N [Example C17, 2-Methoxy-5-{6-[(S)-1-(pyridine-4-carbonyl)-pyrrolidin-3-yloxy]-2,3-dihydro-benzo[1,4]oxazin-4-yl}-nicotinonitrile]",358,8
"Nc1ncc(N2CCOc3ccc(O[C@H]4CCN(C(=O)C5CCOCC5)C4)cc32)cc1C(F)(F)F [Example A23, {(S)-3-[4-(6-Amino-5-trifluoromethyl-pyridin-3-yl)-3,4-dihydro-2H-benzo[1,4]oxazin-6-yloxy]-pyrrolidin-1-yl}-(tetrahydro-pyran-4-yl)-methanone]",1570,170
"CCC(=O)N1CC[C@H](Oc2ccc3c(c2)N(c2cnc(OC)c(C(F)(F)F)c2)CCO3)C1 [Example A10, 1-{(S)-3-[4-(6-Methoxy-5-trifluoromethyl-pyridin-3-yl)-3,4-dihydro-2H-benzo[1,4]oxazin-6-yloxy]-pyrrolidin-1-yl}-propan-1-one]",220,18
"COc1ncc(N2CCOc3ccc(O[C@H]4CCN(C(=O)c5cn(C)cn5)C4)cc32)cc1N [T, {(S)-3-[4-(5-Amino-6-methoxy-pyridin-3-yl)-3,4-dihydro-2H-benzo[1,4]oxazin-6-yloxy]-pyrrolidin-1-yl}-(1-methyl-1H-imidazol-4-yl)-methanone]",1880,76
"CCC(=O)N1CC[C@H](Oc2ccc3c(c2)N(c2cnc(S(C)(=O)=O)c(C)c2)CCO3)C1 [Example B97, 1-{(S)-3-[4-(6-Methanesulfonyl-5-methyl-pyridin-3-yl)-3,4-dihydro-2H-benzo[1,4]oxazin-6-yloxy]-pyrrolidin-1-yl}-propan-1-one]",476,21.5
"COc1ncc(N2CCOc3cnc(O[C@H]4CCN(C(=O)c5cn(C)cn5)C4)cc32)cc1C(F)F [Example F10, {(S)-3-[1-(5-Difluoromethyl-6-methoxy-pyridin-3-yl)-2,3-dihydro-1H-pyrido[3,4-b][1,4]oxazin-7-yloxy]-pyrrolidin-1-yl}-(1-methyl-1H-imidazol-4-yl)-methanone]",39,< 3
"CCS(=O)(=O)N1CC[C@H](Oc2ccc3c(c2)N(c2cnc(S(C)(=O)=O)c(C)c2)CCO3)C1 [Example B84, 6-((S)-1-Ethanesulfonyl-pyrrolidin-3-yloxy)-4-(6-methanesulfonyl-5-methyl-pyridin-3-yl)-3,4-dihydro-2H-benzo[1,4]oxazine]",346,80
"COc1ncc(N2CCOc3ccc(O[C@H]4CCN(C(=O)c5cc[nH]c(=O)c5)C4)cc32)cc1C [Example B91, 4-{(S)-3-[4-(6-Methoxy-5-methyl-pyridin-3-yl)-3,4-dihydro-2H-benzo[1,4]oxazin-6-yloxy]-pyrrolidine-1-carbonyl}-1H-pyridin-2-one]",353,12
"Cc1cc(N2CCOc3ccc(O[C@H]4CCN(C(=O)C5CCS(=O)(=O)CC5)C4)cc32)cnc1Cl [Example B60, {(S)-3-[4-(6-Chloro-5-methyl-pyridin-3-yl)-3,4-dihydro-2H-benzo[1,4]oxazin-6-yloxy]-pyrrolidin-1-yl}-(1,1-dioxo-hexahydro-1lambda*6*-thiopyran-4-yl)-methanone]",463,11
"CCC(=O)N1C[C@H](Oc2ccc3c(c2)N(c2cnc(OC)c(C#N)c2)CCO3)CO1 [Example D25, 2-Methoxy-5-[6-((S)-2-propionyl-isoxazolidin-4-yloxy)-2,3-dihydro-benzo[1,4]oxazin-4-yl]-nicotinonitrile]",> 9100,2690
"COc1ncc(N2CCOc3ccc(O[C@H]4CCN(C(=O)c5cnn6cccnc56)C4)cc32)cc1C#N [Example C22, 2-Methoxy-5-{6-[(S)-1-(pyrazolo[1,5-a]pyrimidine-3-carbonyl)-pyrrolidin-3-yloxy]-2,3-dihydro-benzo[1,4]oxazin-4-yl}-nicotinonitrile]",202,20
"CCC(=O)N1CC[C@H](Oc2ccc3c(c2)N(c2cncc(S(=O)(=O)C(C)C)c2)CCO3)C1 [Example B5, 1-((S)-3-{4-[5-(Propane-2-sulfonyl)-pyridin-3-yl]-3,4-dihydro-2H-benzo[1,4]oxazin-6-yloxy}-pyrrolidin-1-yl)-propan-1-one]",236,25
"COc1ccc(N2CCOc3ccc(O[C@H]4CCN(C(=O)CN(C)C)C4)cc32)cn1 [Example D3, 2-Dimethylamino-1-{(S)-3-[4-(6-methoxy-pyridin-3-yl)-3,4-dihydro-2H-benzo[1,4]oxazin-6-yloxy]-pyrrolidin-1-yl}-ethanone]",4420,219
"COc1ncc(N2CCOc3ccc(O[C@H]4CCN(C(=O)C5CCS(=O)(=O)CC5)C4)cc32)cc1C(F)(F)F [Example B14, (1,1-Dioxo-hexahydro-1lambda*6*-thiopyran-4-yl)-{(S)-3-[4-(6-methoxy-5-trifluoromethyl-pyridin-3-yl)-3,4-dihydro-2H-benzo[1,4]oxazin-6-yloxy]-pyrrolidin-1-yl}-methanone]",244,6
"CCC(=O)N1CC[C@H](Oc2ccc3c(c2)N(c2ccc(OC)c(S(=O)(=O)NOC)c2)CCO3)C1 [Example A31, 2,N-Dimethoxy-5-[6-((S)-1-propionyl-pyrrolidin-3-yloxy)-2,3-dihydro-benzo[1,4]oxazin-4-yl]-benzenesulfonamide]",6020,88
"COc1ncc(N2CCOc3ccc(O[C@H]4CON(C(=O)c5cn(C)cn5)C4)cc32)cc1C#N [Example D26, 2-Methoxy-5-{6-[(R)-2-(1-methyl-1H-imidazole-4-carbonyl)-isoxazolidin-4-yloxy]-2,3-dihydro-benzo[1,4]oxazin-4-yl}-nicotinonitrile]",1240,28
"COc1ncc(N2CCOc3ccc(O[C@H]4CCN(C(=O)C5COCCO5)C4)cc32)cc1C#N (stereo partly drawn) [Example C24, 5-{6-[(S)-1-([1,4]Dioxane-2-carbonyl)-pyrrolidin-3-yloxy]-2,3-dihydro-benzo[1,4]oxazin-4-yl}-2-methoxy-nicotinonitrile]",560,3
